Each block holds one compound with its values, some of them ahead of it.
Key:
NMDA receptors = assay: Patch-clamp: blockade of NMDA-induced currents in cerebral cortex neurons; type: cell-based, rat; settings: for Blockade of NMDA-induced currents (%): neurons of the cerebral cortex
Source text: (§1) The first was to determine the potentiating effect of new compounds on AMPA- and kainate-induced transmembrane currents in neurons of the Purkinje cerebellum of rats, and also blockade of NMDA-induced currents in the neurons of the cerebral cortex of rats;
(§2) Method for assessing properties of the compounds potentiating AMPA/KA-induced currents and blocking NMDA-induced currents.
(§3) Transmembrane currents were induced by activation of AMPA/KA receptors by applying solutions of kainic acid, the agonist of these receptors, and by activation of NMDA receptors by applying solutions of N-methyl-D-aspartic acid (NMDA), the agonist of these receptors, using the rapid superfusion method. Currents were recorded with the aid of borosilicate microelectrodes (resistance 1.5-2.5 mohm) filled with the following composition (in mM): KCl 100.0, EGTA 11.0, CaCl2 1.0, MgCl2 1.0, HEPES 10.0, ATP 5.0, pH 7.2.
(§4) An EPC9 (HEKA, Germany) was used for recording. Currents were recorded on a Pentium-100 PC hard disc using the Pulse program, also purchased from the HEKA company. The results were processed with the aid of the Pulsefit program (HEKA).

AMPA/KA receptors = assay: Patch-clamp: potentiation of kainate-induced transmembrane currents in freshly isolated Purkinje neurons; type: cell-based, rat; settings: for Potentiation of kainate-induced currents (%): Purkinje neurons of the rat cerebellum
Protocol: as §1, §2
The experiments were performed using the patch-clamp method on freshly-isolated Purkinje neurons taken from the cerebellum of rats (aged 14-16 days). A modified method was used for isolation. Slices of cerebellum 400-600 µm in thickness were placed in a thermostat-controlled chamber with a volume of 10 ml. The solution for isolation had the following composition (in mM): NaCl 150.0, KCl 5.0, CaCl2 2.0, MgSO4×7H2O 2.0, HEPES 10.0, glucose 15.0, pH 7.42. The slices were incubated in this solution for 60 minutes, after which this solution was replaced by a similar solution containing pronase (2 mg/ml) and collagenase (1 mg/ml) and incubation was continued for 70 minutes. After washing with the original solution for 20 minutes, the slices were placed in a Petri dish and dissociated mechanically with the aid of a Pasteur pipette. The solutions were continuously bubbled with 100% O2 at t° 34°C. The Purkinje neurons were placed in a working chamber with a volume of 0.6 ml. The working solution has the composition (in mM): NaCl 150.0, KCl 5.0, CaCl2 2.6, MgSO4×7H2O 2.0, HEPES 10.0, glucose 15.0, pH 7.36.
as §3, §4
The application of kainate induces inward transmembrane currents in the Purkinje neurons. Addition of the compounds to the perfusion solution elicits an increase in the amplitude of the currents. This increase depends on the compound, on its concentration, and on the time which has passed since the start of application of the substance.

- Blockade of NMDA-induced currents (%) (NMDA receptors; at 0.5-30 µM): 0 at 0.5-30 µM %
- Potentiation of kainate-induced currents (%) (AMPA/KA receptors; at 0.5-30 µM): 0 at 0.5-30 µM %
Structure (SMILES): c1ccc(CN=C(NCc2ccccc2)SCc2ccccc2)cc1 [Compound 13, S-Benzyl-N-benzyl-N'-benzylisothiocarbamide]

- Blockade of NMDA-induced currents (%) (NMDA receptors; at 0.5-30 µM): 0 at 0.5-30 µM %
- Potentiation of kainate-induced currents (%) (AMPA/KA receptors; at 0.5-30 µM): 0 at 0.5-30 µM %
Structure (SMILES): Cl.O=[N+]([O-])c1ccc(CSC(=NCc2ccccc2)NCc2ccccc2)cc1 [Compound 14, S-4-Nitrobenzyl-N-benzyl-N'-benzylisothiocarbamide hydrochloride]

- Blockade of NMDA-induced currents (%) (NMDA receptors; at 0.5-30 µM): 0 at 0.5-30 µM %
- Potentiation of kainate-induced currents (%) (AMPA/KA receptors; at 0.5-30 µM): 0 at 0.5-30 µM %
Structure (SMILES): Br.O=C(O)c1ccc(CSC(=NCc2ccccc2)NCc2ccccc2)cc1 [Compound 15, S-4-Carboxybenzyl-N-benzyl-N'-benzylisothiocarbamide hydrobromide]

- decrease in the NMDA-induced currents (NMDA receptors; 3 µM, observed range (average given separately)): 25-35%
- Washing out time that returns the amplitude of the NMDA-induced currents to the control value (NMDA receptors; NMDA-induced currents, cerebral cortex neurons): 3 to 6 min
- Blockade of NMDA-induced currents (%) (NMDA receptors; at 3 µM (average), hydrobromide): 30% at 3 µM,
- Blockade of NMDA-induced currents (%) (NMDA receptors; at 3 µM (average), listed as compound 18, hydrobromide): 30%
- Blockade of NMDA-induced currents (%) (NMDA receptors; at 10 µM, hydrobromide): 100% at 10 µM
- Blockade of NMDA-induced currents (%) (NMDA receptors; at 10 µM, listed as compound 18, hydrobromide): 100%
- increase in kainate-induced currents (AMPA/KA receptors; 20 µM, observed range (average given separately)): 8-12%
- Potentiation of kainate-induced currents (%) (AMPA/KA receptors; at 20 µM (average), hydrobromide): 10% at 20 µM
- Potentiation of kainate-induced currents (%) (AMPA/KA receptors; at 20 µM (average), listed as compound 18, hydrobromide): 10%
- Washing out time that returns the amplitude of the responses to the control value (AMPA/KA receptors; kainate-induced currents, after 20 µM): 3 to 5 min
Structure (SMILES): Br.c1ccc(CCSC(=NCc2ccccc2)NCc2ccccc2)cc1 [Compound 18, S-2-Phenylethyl-N-benzyl-N'-benzylisothiocarbamide hydrobromide]

Further lines, the compound ahead of its results:

Structure (SMILES): CSC(=NCc1ccccc1)NCc1ccccc1 [Compound 11, S-Methyl-N-benzyl-N'-benzylisothio-carbamide]
- Blockade of NMDA-induced currents (%) (NMDA receptors; at 0.5-30 µM): 0 at 0.5-30 µM %
- Potentiation of kainate-induced currents (%) (AMPA/KA receptors; at 0.5-30 µM): 0 at 0.5-30 µM %

Structure (SMILES): CCSC(=NCc1ccccc1)NCc1ccccc1.I [Compound 12, S-Ethyl-N-benzyl-N'-benzylisothiocarbamide hydriodide]
- Blockade of NMDA-induced currents (%) (NMDA receptors; at 0.5-30 µM): 0 at 0.5-30 µM %
- Potentiation of kainate-induced currents (%) (AMPA/KA receptors; at 0.5-30 µM): 0 at 0.5-30 µM %

Structure (SMILES): Br.C=CCSC(=NCc1ccccc1)NCc1ccccc1 [Compound 16, S-Allyl-N-benzyl-N'-benzylisothiocarbamide hydrobromide]
- Blockade of NMDA-induced currents (%) (NMDA receptors; at 0.5-30 µM): 0 at 0.5-30 µM %
- Potentiation of kainate-induced currents (%) (AMPA/KA receptors; at 0.5-30 µM): 0 at 0.5-30 µM %

Structure (SMILES): Br.C1=CC(SC(=NCc2ccccc2)NCc2ccccc2)CCC1 (stereo not shown) [Compound 17, S-2-Cyclohexenyl-N-benzyl-N'-benzylisothiocarbamide hydrobromide]
- Blockade of NMDA-induced currents (%) (NMDA receptors; at 0.5 µM): 30-50%
- Blockade of NMDA-induced currents (%) (NMDA receptors; at 2 µM): 100%
- Potentiation of kainate-induced currents (%) (AMPA/KA receptors; at 10 µM): 0% at 10 µM
- Potentiation of kainate-induced currents (%) (AMPA/KA receptors; at 0.5-1.0 µM): 60-100% at 0.5-1.0 µM

Structure (SMILES): Br.CCOC(=O)CCSC(=NCc1ccccc1)NCc1ccccc1 [Compound 19, S-2-Ethoxycarbonyl-ethyl-N-benzyl-N'-benzylisothiocarbamide hydrobromide]
- Blockade of NMDA-induced currents (%) (NMDA receptors; at 0.5-30 µM): 0 at 0.5-30 µM %
- Potentiation of kainate-induced currents (%) (AMPA/KA receptors; at 0.5-30 µM): 0 at 0.5-30 µM %

Structure (SMILES): NS(=O)(=O)c1cc2c(cc1Cl)NC(C1CC3C=CC1C3)NS2(=O)=O (stereo not shown) [Cyclothiazide, reference compound]
- Blockade of NMDA-induced currents (%) (NMDA receptors; at 1-30 µM): 0 at 1-30 µM %
- Potentiation of kainate-induced currents (%) (AMPA/KA receptors; at 1 µM): 20% at 1 µM

Structure (SMILES): CC12CC3CC(C)(C1)CC(N)(C3)C2 [Memantine, reference compound]
- Blockade of NMDA-induced currents (%) (NMDA receptors; at 17 µM): 50% at 17 µM
- Potentiation of kainate-induced currents (%) (AMPA/KA receptors; at 30 µM): 15% at 30 µM

Structure (SMILES): Nc1c2c(nc3ccccc13)CCCC2 [Tacrine, reference compound]
- Blockade of NMDA-induced currents (%) (NMDA receptors; at 0.5-30 µM): 0 at 0.5-30 µM %
- Potentiation of kainate-induced currents (%) (AMPA/KA receptors; at 0.5-30 µM): 0 at 0.5-30 µM %

Reference: patent EP1577294A1, “S-SUBSTITUTED N-1- (HETERO)ARYL ALKYL-N - (HETERO)ARYL ALKYLYSOTHIOCARBAMIDES, METHOD FOR THE PRODUCTION THEREOF, PHYSIOLOGICALLY ACTIVE S-SUBSTITUTED N-1- (HETERO )ARYL ALKYL-N - (HETERO)ARYL ALKYLYSOTHIOCARBAMIDES,A PHARMACEUTICAL COMPOUND AND CURING METHOD” (Institut Fiziologicheski Aktivnykh Veschestv Rossiyskov …, priority 2002, dated 2004)
